The experiment has as its target T1, Muscarinic acetylcholine receptor M2 (Homo sapiens, UniProt P08172).
T1 sequence (P08172 whole entry): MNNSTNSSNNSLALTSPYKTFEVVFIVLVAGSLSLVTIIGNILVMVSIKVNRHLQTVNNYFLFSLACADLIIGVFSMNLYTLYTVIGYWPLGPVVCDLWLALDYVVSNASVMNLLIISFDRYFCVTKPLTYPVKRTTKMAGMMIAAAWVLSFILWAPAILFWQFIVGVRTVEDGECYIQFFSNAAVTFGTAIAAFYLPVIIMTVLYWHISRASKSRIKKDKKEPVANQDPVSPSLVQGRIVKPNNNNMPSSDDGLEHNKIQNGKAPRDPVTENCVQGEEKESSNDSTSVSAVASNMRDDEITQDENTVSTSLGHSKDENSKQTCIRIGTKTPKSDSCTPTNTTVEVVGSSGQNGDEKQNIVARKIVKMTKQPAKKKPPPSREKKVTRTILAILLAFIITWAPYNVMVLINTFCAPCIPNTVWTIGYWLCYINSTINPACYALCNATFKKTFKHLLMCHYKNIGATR

As usually defined, the AC50 is the midpoint of the concentration-response curve, whichever way the signal moves. Read a low AC50 as greater potency.
Note: assay procedure not described here.

Turning to `OC(CCCN1CCCCC1)(c1ccccc1)c1ccccc1` [DIPHENIDOL], the AC50 stood at 380 nM.

Values taken from ChEMBL document CHEMBL5291721, “A preclinical secondary pharmacology resource illuminates target-adverse drug reaction associations of marketed drugs” (Nat Commun, 2023).
